# Source: patent US9045524B2, “Selective caspase inhibitors and uses thereof” (NOVAGENESIS FOUNDATION, priority 2009, dated 2015)
# Columns and labels:
# [1] = test system: proteolytic cleavage of PARP (poly ADP-ribose polymerase) in Hela cells; assay: Inhibition of staurosporine-induced PARP cleavage in live Hela cells; type: cell-based
# Outline: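 HeLa cells in 96 well plates were exposed for 4 hours to the apoptosis inducer staurosporine with or without test compound. Fixed cells were stained with a fluorescein-labeled anti-cleaved PARP antibody and counterstained with Hoechst33342. Cellomics imaging gave the fraction of nuclei positive for cleaved PARP, and inhibition was computed relative to staurosporine-only treatment.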
# [2] = test system: EAE in C57BL/6 mice; assay: Chronic EAE mouse model (MOG35-55 immunization), daily clinical score and body weight; type: in vivo; design: key to Delay in onset of the disease / Reduction in severity of the disease / Reduction in body weight loss: +++: high level improvement; ++: moderate improvement; +: small improvement; −: no improvement
# Outline: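 Female C57BL/6 mice, 7–8 weeks old, were immunized s.c. with 100 μg MOG35-55 in CFA containing M. tuberculosis H37Ra, plus 200 ng pertussis toxin i.p. on days 0 and 2. […], compound in 2.5% DMSO/PBS was given i.p.; vehicle for placebo. Clinical score (0–5) and body weight were recorded daily.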
# [3] = molecular target: Caspase-8 (Homo sapiens (Human), UniProt Q14790); assay: Fluorometric enzymatic assay, active recombinant Caspase-8; type: biochemical; settings: 10-point titration 0.1 nM to 3.3 μM, 30-minute incubation at 37° C.; read-out: IC50 values (μM) Caspase-8
# Chain of Caspase-8 (Q14790 217-374): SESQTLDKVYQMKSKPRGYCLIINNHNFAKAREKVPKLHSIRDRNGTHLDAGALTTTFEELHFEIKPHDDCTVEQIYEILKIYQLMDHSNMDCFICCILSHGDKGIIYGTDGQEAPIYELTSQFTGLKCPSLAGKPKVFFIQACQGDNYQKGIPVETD
# Chain of Caspase-8 (Q14790 385-479): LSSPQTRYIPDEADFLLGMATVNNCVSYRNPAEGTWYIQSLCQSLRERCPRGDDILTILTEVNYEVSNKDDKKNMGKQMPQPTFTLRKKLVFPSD
# Method: . In brief, each compound was serially diluted for a final test concentration range of 0.1 nM to 3.3 μM (10-point titration). Each active recombinant Caspase (Active Recombinant Caspase Set IV™ (BioVision, Cat# K233-10-25)) was added to the respective wells of the 96-well High Efficiency™ plates (Molecular Devices, Cat#75-000-0005), followed by the addition of the diluted test compounds. DMSO (Final=1%) or Z-VAD-FMK (Caspase-Family Inhibitor, Z-VAD-FMK (BioVision, Cat#1010-100), Final concentration=20 uM) was added in the designated wells as a background control or positive inhibitor control respectively. Each dilution of the test compounds was tested in duplicates, whereas the DMSO or Z-VAD-FMK controls were tested in triplicates. The synthetic peptide substrate specific for each Caspase (BioVision) was then added to the respective wells, which when cleaved by the active caspase releases free AFC that can be quantified by fluorometry. After a 30-minute incubation at 37° C., the plates were read using the Flexstation 3™ with a 400 nm excitation filter and a 505 nm emission filter (cutoff at 495 nm). The inhibition efficiency and the IC50 values of the test compounds were then determined by comparing the fluorescence intensity (FI) of the test compounds with that of the DMSO control.
# The SoftMax Pro Software™ (v5.2 rev C, Molecular Devices) was used for data analysis. The % Inhibition is calculated by: % Inhibition=[FI(DMSO)−FI(test sample)/FI(DMSO)]×100. The % Inhibition vs. Log(concentration) was plotted, and the curve was fitted using the 5-parameter fit of the software.
# [4] = FIG. 1, i.p. from day 10 to 16 post immunization, versus placebo
# [5] = FIG. 3, i.p. from day 14 to 19 post immunization, versus placebo
# [6] = FIG. 4, administration for 15 days from day 12 post-immunization, versus placebo
# [7] = average overall effects on the EAE model, i.p.
smiles,measurement,setting,value
"CC(C)[C@H](NC(=O)[C@@H](NC(=O)[C@H](CC(=O)O)NC(=O)OCc1ccccc1)c1ccccc1)C(=O)N[C@H](/C=C/S(C)(=O)=O)CC(=O)O [Compound 53, Z-Asp-Phg-Val-Aspmethyl vinyl sulfone]",effectivity in inhibiting PARP cleavage,"[1]; Hela cells, staurosporine",highly effective relative to DEVD-fmk
same,inhibition at 50 µM,"[1]; Homo sapiens, HeLa, 4 h, read-out: % inhibition of PARP cleavage at 50 uM compound, Hela cells, staurosporine 4 hours, 50 uM compound",> 50%
same,Cumulative clinical score,[2]; [4],significantly lower compared to placebo
same,Disease onset,[2]; [4],delayed
same,Loss of body weight,[2]; [4],less than the placebo
same,clinical severity of the disease,[2]; [4],reduced significantly
same,maximal clinical score,[2]; [4],significantly lower compared to placebo
same,delay of the clinical score (symptoms of EAE),"[2]; FIG. 3, i.p. from day 14 to 19 post immunization, twice the concentration of compound 53",delayed significantly the clinical score
same,Loss of body weight,[2]; [5],less than in the placebo group
same,effects on the clinical course of EAE,[2]; [5],ameliorating effects
same,Loss of body weight,[2]; [6],less than placebo
same,severity of the disease,[2]; [6],began to reverse the effects of the disease and reduced the severity of the disease continuously
same,Delay in onset of the disease,[2]; [7],+++
same,Reduction in body weight loss,[2]; [7],+++
same,Reduction in severity of the disease,[2]; [7],+++
same,IC50,[3],> 3.33 µM
